Literature values as cited in patent US20100197018A1, “USE OF SUBSTRATES AS PHARMACOLOGICAL CHAPERONES” (AMICUS THERAPEUTICS, INC., priority 2007, published 2010).
Where two headings read alike, the source gives them in different places. Marks after values point to notes of the source that are not given here. Each block holds one compound with its values, some of them ahead of it.

What was measured:
[1] = biological target: T1, heparan-N-sulfatase (Homo sapiens, UniProt P51688); conditions: for pH optimum of the enzyme for the substrate: purified enzyme; for Relative catalytic efficiency*: GlcNS = 1.00
T1 sequence (P51688 21-502): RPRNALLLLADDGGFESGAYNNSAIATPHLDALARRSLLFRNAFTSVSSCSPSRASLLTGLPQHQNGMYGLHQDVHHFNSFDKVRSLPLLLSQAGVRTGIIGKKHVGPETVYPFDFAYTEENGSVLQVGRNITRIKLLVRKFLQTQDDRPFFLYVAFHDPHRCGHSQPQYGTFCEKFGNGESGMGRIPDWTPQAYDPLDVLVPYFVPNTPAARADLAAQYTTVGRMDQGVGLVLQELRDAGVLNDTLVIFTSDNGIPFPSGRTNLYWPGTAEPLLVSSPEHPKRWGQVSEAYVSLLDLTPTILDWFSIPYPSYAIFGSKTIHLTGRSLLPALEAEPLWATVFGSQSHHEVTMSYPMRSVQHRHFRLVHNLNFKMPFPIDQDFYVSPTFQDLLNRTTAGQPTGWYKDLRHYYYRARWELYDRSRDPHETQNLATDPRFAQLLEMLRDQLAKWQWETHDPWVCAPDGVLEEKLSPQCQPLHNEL

[2] = biological target: T2, N-acetyl-glucosamine-6-sulfate sulfatase (6S) Form A (Homo sapiens, UniProt P15586); conditions: for kcat. (turnover number) / Relative catalytic efficiency* / Km: Form A; for Relative catalytic efficiency*: kcat./Km calculated relative to a value for GlcNAc6S = 1; for Km: read-out: Km; for pH optimum: Table 6
T2 sequence (P15586 37-552): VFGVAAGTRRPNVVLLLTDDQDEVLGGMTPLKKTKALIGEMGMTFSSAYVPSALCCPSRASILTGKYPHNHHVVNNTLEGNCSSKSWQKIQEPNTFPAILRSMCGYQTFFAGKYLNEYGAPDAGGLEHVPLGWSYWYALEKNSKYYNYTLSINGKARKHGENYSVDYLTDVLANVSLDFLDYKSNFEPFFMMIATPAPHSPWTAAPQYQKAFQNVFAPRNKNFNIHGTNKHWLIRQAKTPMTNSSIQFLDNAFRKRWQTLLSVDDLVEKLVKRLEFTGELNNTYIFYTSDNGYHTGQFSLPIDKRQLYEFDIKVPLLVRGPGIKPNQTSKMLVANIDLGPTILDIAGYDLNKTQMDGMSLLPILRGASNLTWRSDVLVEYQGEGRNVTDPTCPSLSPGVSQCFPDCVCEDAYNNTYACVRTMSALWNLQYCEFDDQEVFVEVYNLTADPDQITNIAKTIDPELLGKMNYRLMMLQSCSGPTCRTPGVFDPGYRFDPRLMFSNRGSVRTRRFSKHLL

[3] = biological target: T3, iduronate-2-sulfatase (Homo sapiens, UniProt P22304); conditions: for pH optimum: Table 4, cells marked * (not optimum pH) left out; for Relative catalytic efficiency: IdoA2S-anM = 1.0; for activity as % of maximal activity: at pH 6.3; for pH of maximal activity: text b65, highly sulfated tetrasaccharide substrates
T3 sequence (P22304 34-550): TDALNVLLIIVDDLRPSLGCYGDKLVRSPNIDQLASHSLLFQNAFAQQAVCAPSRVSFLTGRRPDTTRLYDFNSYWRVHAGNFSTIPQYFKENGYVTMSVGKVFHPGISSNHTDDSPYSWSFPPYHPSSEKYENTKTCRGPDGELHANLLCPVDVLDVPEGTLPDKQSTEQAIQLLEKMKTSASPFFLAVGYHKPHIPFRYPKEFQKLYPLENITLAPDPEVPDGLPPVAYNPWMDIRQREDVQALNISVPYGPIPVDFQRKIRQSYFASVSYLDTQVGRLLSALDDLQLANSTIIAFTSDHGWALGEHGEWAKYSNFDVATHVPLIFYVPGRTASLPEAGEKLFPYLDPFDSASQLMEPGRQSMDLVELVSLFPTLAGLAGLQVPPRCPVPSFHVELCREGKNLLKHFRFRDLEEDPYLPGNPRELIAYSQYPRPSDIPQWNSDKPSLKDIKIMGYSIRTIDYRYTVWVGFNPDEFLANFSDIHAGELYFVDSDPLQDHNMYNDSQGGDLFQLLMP

[4] = rows whose other values are marked †
[5] = values marked † (60° C. per footnote), pH: GlcNS 5.6, GalNS 5.6, GlcNS-IdOA 5.4
[6] = 37°, pH: GlcNS-Ido 6.7, GlcNS-Ido2S 5.5, GlcNS-IdOA 5.6, GlcNS-IdoA-GlcNS-IdOA 5.6, GlcNS-IdoA2S-anM6S 3.6, GlcNS6S-Ido 4.2, GlcNS6S-Ido2S 3.8, GlcNS6S-IdOA 4.2
[7] = at the optimum pH of the substrate analog
[8] = not optimum pH (*): IdoA2S-anM6S at pH 5.0, IdoA2S-anT4S at pH 4.0

Compound: CC(=O)N[C@H]1[C@@H](O[C@H]2[C@H](O)[C@@H](OS(=O)(=O)O)[C@H](O[C@H]3[C@H](O)[C@@H](CO)O[C@@H]3COS(=O)(=O)O)O[C@H]2C(=O)O)O[C@H](COS(=O)(=O)O)[C@@H](O)[C@@H]1O [GlcNAc6S-IdoA2S-anM6S, O-(α-N-acetylglucosamine 6-sulphate)-(1-4)-L-O-(α-iduronic acid 2-sulphate)-(1-4)-D-O-2,5-anhydro-mannitol 6 sulphate]
kcat. (turnover number) [2]: 7.08 mol/min per mol of enzyme
Relative catalytic efficiency* [2]: 402
Km [2]: 0.76 µM
pH optimum [2]: 4.3

Compound: N[C@H]1[C@@H](O[C@H]2[C@H](O)[C@@H](OS(=O)(=O)O)[C@H](O[C@H]3[C@H](O)[C@@H](CO)O[C@@H]3COS(=O)(=O)O)O[C@H]2C(=O)O)O[C@H](COS(=O)(=O)O)[C@@H](O)[C@@H]1O [GlcNH6S-IdoA2S-anM6S, O-α-glucosamine 6-sulphate)-(1-4)-L-O-(α-iduronic acid 2-sulphate)-(1-4)-D-β-2,5-anhydro-mannitol 6-sulphate]
kcat. (turnover number) [2]: 0.11 mol/min per mol of enzyme
Relative catalytic efficiency* [2]: 14
Km [2]: 0.35 µM
pH optimum [2]: 4.3

Compound: [Cl-].[Cl-].[Mg+2] [magnesium chloride]
effect of salt on activity of the enzyme against the substrates [3]: no effect or increase the activity

Compound: [Cl-].[Na+] [sodium chloride]
effect of salt on activity of the enzyme against the substrates [3]: inhibitory

Compound: O=P(O)(O)O [sodium phosphate]
effect of salt on activity of the enzyme against the substrates [3]: inhibitory

Compound: O=S(=O)([O-])[O-].[Na+].[Na+] [sodium sulfate]
effect of salt on activity of the enzyme against the substrates [3]: inhibitory

Compound: L-O-(α-iduronic acid 2 sulphate)-(1-4)-D-β-(α-2-sulphaminoglucosamine)-(1-4)-O-(β-D-glucuronic or α-L-iduronic acid)-(1-4) D-O(α-N-acetylglucosamine-(1-3)-D-O-]-gulonic acid [IdoA2S-GlcNS-UA-GlcNAc-GlcOA]
pH optimum [3]: 5.4
Km [3, 7]: 1.9 µM
kcat. (turnover no.) [3, 7]: 756 mol/min per mol of enzyme
Relative catalytic efficiency [3, 7]: 47.5

Compound: O-(α-L-iduronic acid 2-sulphate)-(1-4)-D-β-(α-2-sulphaminoglucosamine 6 sulphate)-(1-4)-L-O-(α-iduronic acid 2-sulphate)-(1-4)-D-O-2,5-anhydro[1-^3H]mannitol 6-sulphate [IdoA2S-GlcNS6S-IdoA2S-anM6S]
pH range of activity [3]: 5.0-6.5
pH optimum [3]: 5.7
activity as % of maximal activity [3]: ~90%
Km [3, 7]: 1.4 µM
kcat. (turnover no.) [3, 7]: 2177 mol/min per mol of enzyme
Relative catalytic efficiency [3, 7]: 186.7
pH of maximal activity [3]: 5.7

Compound: manganese chloride
effect of salt on activity of the enzyme against the substrates [3]: no effect or increase the activity

Next, values leading:

kcat. (turnover number), value in parentheses ([1]; in parentheses under the † value, parentheses not explained, pH 5.6): (0.0005) mol/min per mol of enzyme
pH optimum of the enzyme for the substrate [1]: 5.6
Relative catalytic efficiency* [1, 4]: 1.00
Km [1, 5]: 0.7 µM
kcat. (turnover number) [1, 5]: 0.0021† mol/min per mol of enzyme
Compound: 2-sulphoamino-glucosamine [GlcNS]

Relative catalytic efficiency* ([1]; 37°, pH (optimum)): 359
Km [1, 6]: 35 µM
kcat. (turnover number) [1, 6]: 9.19 mol/min per mol of enzyme
pH optimum of the enzyme for the substrate [1]: 5.5
Relative catalytic efficiency* [1, 4]: 1477
Km [1, 5]: 40.8 µM
kcat. (turnover number) [1, 5]: 44† mol/min per mol of enzyme
Compound: O=C[C@H](O)[C@@H](O)[C@H](O[C@H]1O[C@H](CO)[C@@H](O)[C@H](O)[C@H]1NS(=O)(=O)O)[C@@H](O)C(=O)O [GlcNS-IdOA, O-(α-2-sulphaminoglucosamine)-(1-4)-O-L-iduronic acid]

Relative catalytic efficiency* ([1]; 37°, pH (optimum)): 36
Km [1, 6]: 4.1 µM
kcat. (turnover number) [1, 6]: 0.11 mol/min per mol of enzyme
pH optimum of the enzyme for the substrate [1]: 5.5
Compound: O=S(=O)(O)N[C@H]1[C@@H](O[C@H]2[C@H](O)[C@@H](OS(=O)(=O)O)C(O)O[C@H]2CO)O[C@H](CO)[C@@H](O)[C@@H]1O (stereo partly drawn) [GlcNS-Ido2S, O-(α-2-sulphaminoglucosamine)-(1-4)-L-6-idose 2-sulphate]

Relative catalytic efficiency* ([1]; 37°, pH (optimum)): 7.40
Km [1, 6]: 7.7 µM
kcat. (turnover number) [1, 6]: 0.0414 mol/min per mol of enzyme
pH optimum of the enzyme for the substrate [1]: 6.7
Compound: O=C[C@H](O)[C@@H](O)[C@H](O[C@H]1O[C@H](CO)[C@@H](O)[C@H](O)[C@H]1NS(=O)(=O)O)[C@@H](O)CO [GlcNS-Ido, O-(α-2-sulphaminoglucosamine)-(1-4)-L-idose)]

pH optimum [3]: 4.0
Km [3, 7]: 4 µM
kcat. (turnover no.) [3, 7]: 2114 mol/min per mol of enzyme
Relative catalytic efficiency [3, 7]: 63.0
increase in binding affinity (Km) ([3]; compared with IdoA2S-anM): 5 fold
increase in turnover (Kcat) ([3]; compared with IdoA2S-anM): 13 fold
increase in catalytic activity ([3]; compared with IdoA2S-anM (addition of a 6-sulfate ester group)): 63 fold
Km [3, 8]: 2.5 µM
kcat. (turnover no.) [3, 8]: 905 mol/min per mol of enzyme
Relative catalytic efficiency [3, 8]: 43.1
Compound: O=C(O)[C@@H]1O[C@@H](O[C@H]2[C@H](O)[C@@H](CO)O[C@@H]2COS(=O)(=O)O)[C@H](OS(=O)(=O)O)[C@@H](O)[C@@H]1O [IdoA2S-anM6S, L-O-(α-iduronic acid 2-sulphate)-(1-4)-D-β-2,5-anhydro-mannitol 6-sulphate]

pH optimum [3]: 5.4
Km [3, 7]: 19.2 µM
kcat. (turnover no.) [3, 7]: 161 mol/min per mol of enzyme
Relative catalytic efficiency [3, 7]: 1.0
Compound: O=C(O)[C@@H]1O[C@@H](O[C@H]2[C@H](O)[C@@H](CO)O[C@@H]2CO)[C@H](OS(=O)(=O)O)[C@@H](O)[C@@H]1O [IdoA2S-anM, L-O-(α-iduronic acid 2-sulphate-(1-4)-D-β-2,5-anhydro-mannitol]

pH range of activity [3]: 4.2-6.0
pH optimum [3]: 5.4
activity as % of maximal activity [3]: ~12%
Km [3, 7]: 2.5 µM
kcat. (turnover no.) [3, 7]: 1925 mol/min per mol of enzyme
Relative catalytic efficiency [3, 7]: 91.7
pH of maximal activity [3]: 5.1
Compound: L-O-(α-iduronic acid 2 sulphate)-D-β-α-glucosamine 6-sulphate)-(1-4)-L-O-(α-iduronic acid 2-sulphate)-(1-4)-D-O-anhydro-mannitol 6-sulphate [IdoA2S-GlcNH6S-IdoA2S-anM6S]

pH optimum [3]: 5.0
Km [3, 7]: 0.7 µM
kcat. (turnover no.) [3, 7]: 507 mol/min per mol of enzyme
Relative catalytic efficiency [3, 7]: 86.2
Km [3, 8]: 1.1 µM
kcat. (turnover no.) [3, 8]: 270 mol/min per mol of enzyme
Relative catalytic efficiency [3, 8]: 29.3
Compound: O-(α-L-idopyranosyluronic acid 2-sulfate)-(1-3)-2,5-anhydro-D-talitol 4-sulfate [IdoA2S-anT4S]
